Data on seven compounds can be found in patent US20240166690A1, “MULTI-TARGET CY[…] FOR OPIOID/NEUROPEPTIDE FF RECEPTORS, AND PREPARATION THEREFOR AND APPLICATION THEREOF” (SHANGHAI TIANCI LIFE SCIENCE DEVELOPMENT CO., LTD., priority 2021, published 2024).

Bridge positions count the residues as written; N and C are the ends. Square brackets hold non-standard residues; d marks the D form. Ends that are not written are not given here. Peptide text beside a SMILES is read from it. NMeF = CN[C@@H](Cc1ccccc1)C(=O)O; dDab = NCC[C@@H](N)C(=O)O

In test [1] the test system is Kunming male mice. Briefly: Photothermal tail flick experiment, subcutaneous injection. The settings on record: for ED50 value (95% confidence interval), analgesic activity: photothermal tail flick. The format is in vivo. Here is the method:
(§1) Two administration methods were used: peripheral subcutaneous administration and oral administration. Subsequently, the analgesic activity of the drug was studied using an acute pain model of photothermal tail flick in mice.
Subcutaneous administration on the back was chosen for subcutaneous administration (s.c.). A sterile 1 mL syringe was used and the drug with the volume of 0.1 mL/10 g was injected for administration. The back skin was grasped with the right hand, the needle was tilted in, and the drug was injected subcutaneously into the mouse's back. After the needle was inserted, shook it left and right, and observe to confirm that the needle had indeed entered the subcutaneous area to prevent the needle from puncturing the skin and leaking the drug.
(§2) The photothermal tail flick experiment is based on the experimental method summarized by D'Amour and Smith to optimize the experimental parameters. The experiment selected Kunming male mice with body weigh 21±2 g, and ambient temperature controlled at 22±2° C. The experimental mice were allowed to drink water freely and were moved from the breeding room to the experimental area for adaptation for 30 minutes before starting the experiment. Then the mice were grab with the right hand and the tail hang freely. Then the mice's tail were placed on a radiation light source, 2-3 mm away from the mice tail. The intensity of radiation heat was adjusted to the tail flick time of mice being 3-5 s, which is the basic pain threshold of photothermal tail flick. The irradiation time of the mice tail should not exceed 10 s to prevent scalding of the mice tail, which was the maximum latency for photothermal tail flick. After administration, time points of 10, 20, 30, 45, 60, 90, 120, 180, 240, 300, 360, and 420 minutes were selected to measure the tail flick latency of mice after administration.
(§3) The analgesic effect of drugs was generally evaluated using the maximum analgesic effect MPE (%), MPE (%)=100×[(pain threshold after administration−basic pain threshold)/(10 seconds−basic pain threshold)]. 50% effective dose (ED50) refers to the corresponding drug dose that causes a 50% effect. ED50 and 95% confidence interval were calculated using MPE (%) and the drug concentration that achieves the maximum analgesic effect MPE (%) by the statistical software GraphPad Prism 5.0. The difference in analgesic effects was statistically analyzed using one-way ANOVA (Dunnett test), *P<0.05, **P<0.01, and ***P<0.001 indicated significance of the difference between the group with only drug injected and the saline group.

In the next test the target is T1, NPFF2 receptor (Homo sapiens, UniProt Q9Y5X5).
T1 construct: expressed in transfected cells; host or cells: HEK293
T1 sequence (Q9Y5X5 whole entry): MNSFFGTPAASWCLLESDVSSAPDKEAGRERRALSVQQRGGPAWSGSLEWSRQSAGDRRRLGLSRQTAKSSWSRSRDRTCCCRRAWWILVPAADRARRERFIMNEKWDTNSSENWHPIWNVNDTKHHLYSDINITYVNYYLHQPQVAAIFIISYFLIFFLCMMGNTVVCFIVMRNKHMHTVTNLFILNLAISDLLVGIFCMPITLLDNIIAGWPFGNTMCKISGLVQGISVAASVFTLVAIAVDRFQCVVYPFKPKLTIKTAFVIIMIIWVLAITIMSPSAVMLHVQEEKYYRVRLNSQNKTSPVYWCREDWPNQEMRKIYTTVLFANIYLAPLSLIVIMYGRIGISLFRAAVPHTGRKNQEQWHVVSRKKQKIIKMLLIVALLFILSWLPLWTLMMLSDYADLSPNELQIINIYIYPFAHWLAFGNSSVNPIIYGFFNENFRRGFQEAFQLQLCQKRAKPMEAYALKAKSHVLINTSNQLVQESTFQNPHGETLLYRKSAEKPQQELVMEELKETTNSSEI
Briefly: cAMP functional experiment, NPFF2 receptor (forskolin-induced cAMP accumulation). The test is classed as cell-based. The protocol:
(§4) The agonistic activity of the cyclopeptide molecule of the present invention against Mu-opioid receptor, Delta-opioid receptor, Kappa-opioid receptor, NPFF1 receptor and NPFF2 receptor was evaluated by detecting the regulation of the cyclopeptide molecule of the present invention on the intracellular accumulation of cyclic adenosine monophosphate (cAMP) induced by Forskolin in HEK293 cells stably expressing these five receptors. The experimental method was: the cells were seeded in 24 well plates with 120000 cells per well, and were cultured for more than 20 hours. At the beginning of the experiment, the culture medium in the culture dish was suck out, and then 500 μL of preheated serum-free medium containing 1 mM of IBMX was added, the mixture was incubated at 37° C. for 10 minutes. Then each 10 μL of the drug to be tested and 10 μM of forskolin (final concentration) were added to each well. The mixture was incubated at 37° C. for 30 minutes. After incubation, all the liquid was suck out from the culture dish, 500 μL of 0.2 N hydrochloric acid was added to each well, the mixture was incubated at room temperature for 30 minutes to promote cell lysis. After lysis was complete, NaOH was added to neutralize the hydrochloric acid solution used for lysis. Then all the liquid was suck out from the culture dish into centrifuge tubes, the liquid was centrifuged at 12000 rpm for 2 minutes. 50 μL was taken to a clean centrifuge tube, 100 μL of 60 μg/μL PKA was added, and 100 μL of TE cAMP buffer was added to the blank control group (B). Another 50 μL of 0.5 μ Ci[^3H]cAMP was added to each of the above centrifuge tubes, the mixture was quickly mixed and incubated at 4° C. for more than 2 hours. After incubation, another 100 μL of activated carbon suspension was added to each tube, the mixture was vortex agitated evenly, placed in an ice bath for 1 minute, centrifuged at 5000 rpm for 4 minutes. 200 μL of supernatant after centrifugation in each tube was suck out to a 24 well plate, with an additional 700 μL of scintillator liquid added per well, then the 24 well plate was sealed with adhesive film, placed for 3 hours, then placed on the scintillation instrument for measurement.
(§5) The inhibitory effect of cAMP was represented by the percentage (% control) of drug inhibition of intracellular cAMP accumulation induced by Forskolin, wherein % control=(cAMP content when treated with Forskolin−cAMP content when Forskolin co-treated with the test drug)/(cAMP content when treated with Forskolin−cAMP content when treated with solvent). The related % control data was represented by mean±S.E.M. The dose-effect relationship of the drug was statistically analyzed using a nonlinear regression model, and the IC50 values of the multi-target cyclopeptide molecule on inhibition of Forskolin induced intracellular cAMP accumulation were calculated using the statistical software GraphPad Prism version 5.0.

The test system of test [2] is Kunming male mice. Description: Photothermal tail flick experiment, oral administration. The test is classed as in vivo. To be noted: tail flick; for Maximum analgesic time: oral administration at the maximum analgesic dose. Here is the method:
as §1
1 mL sterile syringe was used for oral administration (p.o.), the pinhead was replaced with a mouse gastric lavage needle, and […] of the drug was orally administered. The skin on the neck and back of the mouse was grasped with the left hand with the abdomen facing upwards. Noted that the mouse's entire body was fixed to vertical, which was beneficial for oral gavage. A gastric lavage needle (No. 12 needle and 1 mL syringe) was held in the right hand and was inserted to the esophagus along the upper jaw which is pressed the tongue tightly from the corner of the mouse's mouth. Gastric lavage fluid can be injected when the needle inserted 2.5 cm. The inserting length of the needle should be determined through practice in advance, as there is a sense of falling into a hole after the needle is inserted. If the injection position was appropriate, it should be very smooth. […] This can cause immediate death of the mouse after gavage.
as §2, §3

In the next test the target is T2, Mu-opioid receptor (Homo sapiens, UniProt P35372).
T2 construct: expressed in transfected cells; host or cells: HEK293
T2 sequence (P35372 whole entry): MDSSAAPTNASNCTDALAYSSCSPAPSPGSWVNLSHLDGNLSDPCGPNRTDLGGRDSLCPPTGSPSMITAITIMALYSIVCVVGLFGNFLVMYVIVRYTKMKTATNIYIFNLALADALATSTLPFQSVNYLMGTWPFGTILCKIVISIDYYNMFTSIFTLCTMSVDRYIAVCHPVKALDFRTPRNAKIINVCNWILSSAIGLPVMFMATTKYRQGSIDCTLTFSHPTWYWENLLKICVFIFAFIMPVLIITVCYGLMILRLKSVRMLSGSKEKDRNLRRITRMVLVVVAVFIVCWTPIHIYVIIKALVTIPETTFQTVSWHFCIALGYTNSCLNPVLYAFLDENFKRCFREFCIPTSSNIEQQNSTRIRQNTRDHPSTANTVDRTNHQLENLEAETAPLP
Description: cAMP functional experiment, Mu-opioid receptor (forskolin-induced cAMP accumulation). The format is cell-based. The protocol:
as §4, §5

In a further test the target is T3, Kappa-opioid receptor (Homo sapiens, UniProt P41145).
T3 construct: expressed in transfected cells; host or cells: HEK293
T3 sequence (P41145 whole entry): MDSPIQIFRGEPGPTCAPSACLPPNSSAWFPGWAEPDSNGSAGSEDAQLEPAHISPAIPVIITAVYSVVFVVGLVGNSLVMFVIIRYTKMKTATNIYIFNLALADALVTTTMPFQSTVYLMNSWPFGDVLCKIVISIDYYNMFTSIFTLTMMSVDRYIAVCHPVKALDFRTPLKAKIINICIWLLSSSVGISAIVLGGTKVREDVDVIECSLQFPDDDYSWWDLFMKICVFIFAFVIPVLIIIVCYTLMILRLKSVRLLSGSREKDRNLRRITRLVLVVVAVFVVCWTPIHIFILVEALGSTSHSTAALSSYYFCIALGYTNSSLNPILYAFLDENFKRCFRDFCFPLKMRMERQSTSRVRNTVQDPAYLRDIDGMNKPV
Description: cAMP functional experiment, Kappa-opioid receptor (forskolin-induced cAMP accumulation). The test is classed as cell-based. Here is the method: as §4, §5

In a further test the target is T4, Delta-opioid receptor (Homo sapiens, UniProt P41143).
T4 construct: expressed in transfected cells; host or cells: HEK293
T4 sequence (P41143 whole entry): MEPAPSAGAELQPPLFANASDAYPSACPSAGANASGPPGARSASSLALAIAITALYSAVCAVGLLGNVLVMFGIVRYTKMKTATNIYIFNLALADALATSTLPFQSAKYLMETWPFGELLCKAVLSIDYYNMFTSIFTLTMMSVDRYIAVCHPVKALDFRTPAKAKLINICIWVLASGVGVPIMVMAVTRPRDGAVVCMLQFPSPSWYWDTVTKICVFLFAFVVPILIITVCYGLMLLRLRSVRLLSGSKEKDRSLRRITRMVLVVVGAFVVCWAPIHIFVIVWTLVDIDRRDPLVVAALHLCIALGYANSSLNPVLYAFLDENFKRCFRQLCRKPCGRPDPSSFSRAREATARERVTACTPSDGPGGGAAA
Description: cAMP functional experiment, Delta-opioid receptor (forskolin-induced cAMP accumulation). The test is classed as cell-based. Here is the method: as §4, §5

The next test has as its target T5, NPFF1 receptor (Homo sapiens, UniProt Q9GZQ6).
T5 construct: expressed in transfected cells; host or cells: HEK293
Description: cAMP functional experiment, NPFF1 receptor (forskolin-induced cAMP accumulation). The test is classed as cell-based. Here is the method: as §4, §5

T5 sequence (Q9GZQ6 whole entry): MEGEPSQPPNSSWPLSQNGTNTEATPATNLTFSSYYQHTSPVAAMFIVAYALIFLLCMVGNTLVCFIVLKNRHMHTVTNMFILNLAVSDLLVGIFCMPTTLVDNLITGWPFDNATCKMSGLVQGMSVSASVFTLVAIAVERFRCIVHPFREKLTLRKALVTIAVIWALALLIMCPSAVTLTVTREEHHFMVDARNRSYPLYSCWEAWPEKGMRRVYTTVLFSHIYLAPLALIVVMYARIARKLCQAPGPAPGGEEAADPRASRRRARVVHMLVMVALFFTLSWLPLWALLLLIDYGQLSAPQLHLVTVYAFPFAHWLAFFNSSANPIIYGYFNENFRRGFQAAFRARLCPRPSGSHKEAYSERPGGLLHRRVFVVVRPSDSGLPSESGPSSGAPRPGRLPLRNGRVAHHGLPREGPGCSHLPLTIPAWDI

With `CN1C(=O)CNC(=O)[C@H](NC(=O)[C@@H](N)Cc2ccc(O)cc2)CCNC(=O)C[C@@H](C(=O)N2CCC[C@H]2C(=O)N[C@@H](CCC(N)=O)C(=O)N[C@@H](CCCNC(=N)N)C(=O)N[C@@H](Cc2ccccc2)C(N)=O)NC(=O)[C@@H]1Cc1ccccc1` [Compound 9, Tyr-c^[2,5][D-Dab-Gly-NMe-Phe-Asp]-Pro-Gln-Arg-Phe-NH2] (H-Y[dDab]G[NMeF]DPQRF-NH2; lactam 2-5), the “ED50 value (95% confidence interval), analgesic activity” value (“ED50 value (95% confidence interval)” for short) in the test with Kunming male mice [1] is 16.0 (14.4 to 17.6) μg/kg. Also, the IC50 against NPFF2 receptor came out at 265 nM; against Mu-opioid receptor, 37.9 nM; on Kappa-opioid receptor, 71.2 nM; at Delta-opioid receptor, 95.1 nM; against NPFF1 receptor it was 180 nM. Moreover, in the test with Kunming male mice [2], the Maximum analgesic time is 30 min. In the test with Kunming male mice [2] (oral administration), this compound gave an analgesic duration of 240 min.
For `CN1C(=O)CNC(=O)[C@H](NC(=O)[C@@H](N)Cc2ccc(O)cc2)CC(=O)NCCCC[C@@H](C(=O)N2CCC[C@H]2C(=O)N[C@@H](CCC(N)=O)C(=O)N[C@@H](CCCNC(=N)N)C(=O)N[C@@H](Cc2ccccc2)C(N)=O)NC(=O)[C@@H]1Cc1ccccc1` [Compound 6, Tyr-c^[2,5][D-Asp-Gly-NMe-Phe-Lys]-Pro-Gln-Arg-Phe-NH2] (H-Y[dD]G[NMeF]KPQRF-NH2; lactam 2-5), the “ED50 value (95% confidence interval)” value with Kunming male mice [1] is reported as 15.8 (14.6 to 17.1) μg/kg. Besides, the IC50 is 303 nM against NPFF2 receptor; 66.3 nM on Mu-opioid receptor; 58 nM against Kappa-opioid receptor; 74.2 nM against Delta-opioid receptor; 222 nM on NPFF1 receptor. Also, the Maximum analgesic time with Kunming male mice [2] turned out to be 30 min. The analgesic duration in the test on Kunming male mice [2] (oral administration) was found to be 240 min.
Take `CN1C(=O)CNC(=O)[C@@H](NC(=O)[C@@H](N)Cc2ccc(O)cc2)CCCCNC(=O)C[C@@H](C(=O)N2CCC[C@H]2C(=O)N[C@@H](CCC(N)=O)C(=O)N[C@@H](CCCNC(=N)N)C(=O)N[C@@H](Cc2ccccc2)C(N)=O)NC(=O)[C@@H]1Cc1ccccc1` [Compound 3, Tyr-c^[2,5][Lys-Gly-NMe-Phe-Asp]-Pro-Gln-Arg-Phe-NH2] (H-YKG[NMeF]DPQRF-NH2; lactam 2-5): the “ED50 value (95% confidence interval)” value in the test on Kunming male mice [1] is reported as 25.4 (22.1 to 29.2) μg/kg. The IC50 against NPFF2 receptor was 112 nM; against Mu-opioid receptor it was 70.7 nM; against Kappa-opioid receptor, 320 nM; against Delta-opioid receptor it was 28.2 nM; at NPFF1 receptor it was 28.9 nM. The same compound displayed a Maximum analgesic time in the test on Kunming male mice [2] of 20 min. Also, the analgesic duration with Kunming male mice [2] (oral administration) stood at 240 min.
Regarding “Tyr-D-Ala-Gly-NMe-Phe-Gly-Pro-Gln-Arg-Phe-NH2 (Y[dA]G[NMeF]GPQRF-NH2) [DN-9, multi-target parent peptide for opioid receptor/neuropeptide FF receptors, chemical template, reference compound]”, the “ED50 value (95% confidence interval)” value in the test on Kunming male mice [1] came out at 228 µg/kg. In the test with Kunming male mice [1] (tail flick), the “effective analgesic actuation duration” value worked out at 90 min. Besides, the Maximum analgesic time in the test on Kunming male mice [2] came to 20 min. In addition, in the test with Kunming male mice [2] (oral administration), the analgesic duration turned out to be 90 min and the “oral analgesic activity” value was “only produces strong analgesic activity at a high-dose of 40 mg/kg”.
`CN1C(=O)CNC(=O)[C@H](NC(=O)[C@@H](N)Cc2ccc(O)cc2)CCCCNC(=O)C[C@H](C(=O)N2CCC[C@H]2C(=O)N[C@@H](CCC(N)=O)C(=O)N[C@@H](CCCNC(=N)N)C(=O)N[C@@H](Cc2ccccc2)C(N)=O)NC(=O)[C@@H]1Cc1ccccc1` [Compound 5, Tyr-c^[2,5][D-Lys-Gly-NMe-Phe-D-Asp]-Pro-Gln-Arg-Phe-NH2] (H-Y[dK]G[NMeF][dD]PQRF-NH2; lactam 2-5): in the test on Kunming male mice [1], the “ED50 value (95% confidence interval)” value is recorded as 23.2 (19.1 to 28.2) μg/kg. The IC50 against NPFF2 receptor is 190 nM; on Mu-opioid receptor, 586 nM; on Delta-opioid receptor it was 345 nM; on NPFF1 receptor it was 528 nM. For the same compound, the Maximum analgesic time with Kunming male mice [2] is on record as 20 min. For the same compound, the analgesic duration in the test with Kunming male mice [2] (oral administration) is reported as 240 min.
Consider `CN1C(=O)CNC(=O)[C@H](NC(=O)[C@@H](N)Cc2ccc(O)cc2)CCCCNC(=O)C[C@@H](C(=O)NCC(=O)N[C@@H](CCC(N)=O)C(=O)N[C@@H](CCCNC(=N)N)C(=O)N[C@@H](Cc2ccccc2)C(N)=O)NC(=O)[C@@H]1Cc1ccccc1` [Compound 12, Tyr-c^[2,5][D-Lys-Gly-NMe-Phe-Asp]-Gly-Gln-Arg-Phe-NH2] (H-Y[dK]G[NMeF]DGQRF-NH2; lactam 2-5), for which the IC50 against NPFF2 receptor was 93 nM; against Mu-opioid receptor, 82.6 nM; against Kappa-opioid receptor it was 97.4 nM; at Delta-opioid receptor it was 45.2 nM; against NPFF1 receptor it was 58.6 nM. In the test on Kunming male mice [2], this compound yielded a Maximum analgesic time of 20 min. The same compound gave an analgesic duration with Kunming male mice [2] (oral administration) of 240 min.
`CN1C(=O)CNC(=O)[C@@H](NC(=O)[C@@H](N)Cc2ccc(O)cc2)CCCCNC(=O)C[C@H](C(=O)N2CCC[C@H]2C(=O)N[C@@H](CCC(N)=O)C(=O)N[C@@H](CCCNC(=N)N)C(=O)N[C@@H](Cc2ccccc2)C(N)=O)NC(=O)[C@@H]1Cc1ccccc1` [Compound 4, Tyr-c^[2,5][Lys-Gly-NMe-Phe-D-Asp]-Pro-Gln-Arg-Phe-NH2] (H-YKG[NMeF][dD]PQRF-NH2; lactam 2-5): the “ED50 value (95% confidence interval)” value in the test on Kunming male mice [1] is recorded as 30.3 (19.4 to 47.1) μg/kg. Moreover, the IC50 against NPFF2 receptor was 81.5 nM; on Mu-opioid receptor it was 166 nM; at Delta-opioid receptor it was 923 nM; against NPFF1 receptor, 104 nM. The Maximum analgesic time in the test on Kunming male mice [2] turned out to be 20 min. In addition, the analgesic duration in the test with Kunming male mice [2] (oral administration) is 240 min.
